ChEMBL document CHEMBL2406973, “Synthesis of novel diarylamino-1,3,5-triazine derivatives as FAK inhibitors with anti-angiogenic activity” (Bioorg Med Chem Lett, 2013)

Columns and labels:
[1] = molecular target: Focal adhesion kinase 1 (Homo sapiens, UniProt Q05397); test: Inhibition of pre-activated recombinant full length FAK (unknown origin) using ULight labeled poly(Glu/Tyr) as substrate after 1.6 hrs by TR-FRET assay
[2] = test system: HUVEC; test: Antiangiogenic activity in HUVEC assessed as inhibition of VEGF-stimulated proliferation after 72 hrs by WST-1 assay; format: functional, cell-based; settings: Homo sapiens

Focal adhesion kinase 1, sequence (Q05397 whole entry): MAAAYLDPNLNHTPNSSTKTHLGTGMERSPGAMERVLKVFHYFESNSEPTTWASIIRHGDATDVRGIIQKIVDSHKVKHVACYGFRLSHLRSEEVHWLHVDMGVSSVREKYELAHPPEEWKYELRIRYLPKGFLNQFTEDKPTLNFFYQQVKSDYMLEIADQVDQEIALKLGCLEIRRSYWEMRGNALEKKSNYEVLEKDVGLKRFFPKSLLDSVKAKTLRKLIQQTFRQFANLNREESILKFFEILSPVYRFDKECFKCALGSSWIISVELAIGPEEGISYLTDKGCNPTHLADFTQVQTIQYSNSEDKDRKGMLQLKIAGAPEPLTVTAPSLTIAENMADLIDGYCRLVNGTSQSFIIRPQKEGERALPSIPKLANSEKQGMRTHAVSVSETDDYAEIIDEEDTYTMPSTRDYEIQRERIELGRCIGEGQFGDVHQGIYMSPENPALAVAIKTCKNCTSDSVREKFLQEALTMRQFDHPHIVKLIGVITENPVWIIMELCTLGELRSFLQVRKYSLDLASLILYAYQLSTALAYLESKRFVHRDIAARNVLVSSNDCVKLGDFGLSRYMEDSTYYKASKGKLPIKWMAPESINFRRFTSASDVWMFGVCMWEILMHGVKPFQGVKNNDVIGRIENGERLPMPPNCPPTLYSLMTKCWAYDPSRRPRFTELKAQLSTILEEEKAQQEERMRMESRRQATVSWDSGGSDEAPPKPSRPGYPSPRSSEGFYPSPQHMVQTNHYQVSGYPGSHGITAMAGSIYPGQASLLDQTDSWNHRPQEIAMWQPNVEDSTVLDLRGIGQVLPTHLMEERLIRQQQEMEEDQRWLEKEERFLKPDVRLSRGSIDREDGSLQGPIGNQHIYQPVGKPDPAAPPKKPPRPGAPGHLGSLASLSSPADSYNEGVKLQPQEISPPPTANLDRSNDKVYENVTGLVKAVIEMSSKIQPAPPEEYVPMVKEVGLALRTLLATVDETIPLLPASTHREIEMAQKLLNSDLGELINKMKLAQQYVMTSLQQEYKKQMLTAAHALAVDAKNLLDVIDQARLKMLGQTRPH

IC50 [1] [µM] | SMILES | IC50 [2] [µM]
1 | CC(C)NC(=O)c1ccccc1Nc1ncnc(Nc2ccc(CN)cc2)n1 | 3.2
1.9 | CCC(CC)NC(=O)c1ccccc1Nc1ncnc(Nc2ccc(CN)cc2)n1 | 1.4
2.2 | COc1cc(Nc2ncnc(Nc3ccccc3C(=O)NC(C)C)n2)cc(OC)c1OC | 4
6.1 | COc1cc(Nc2ncnc(Nc3ccccc3C(=O)NC3CC3)n2)cc(OC)c1OC | 5.9
6 | CCC(CC)NC(=O)c1ccccc1Nc1ncnc(Nc2cc(OC)c(OC)c(OC)c2)n1 | 5.3
5.2 | COc1cc(Nc2ncnc(Nc3ccccc3C(=O)NC3CCCC3)n2)cc(OC)c1OC | 3.9
23.8 | COc1cc(Nc2ncnc(Nc3ccccc3C(=O)NCCO)n2)cc(OC)c1OC | 17.5
10.2 | COc1cc(Nc2ncnc(Nc3ccccc3C(=O)NCCN(C)C)n2)cc(OC)c1OC | 9.4
17.9 | COC(=O)c1ccccc1Nc1ncnc(Nc2cc(OC)c(OC)c(OC)c2)n1 | 23.2
6.1 | COc1ccc(Nc2ncnc(Nc3ccccc3NS(C)(=O)=O)n2)c(OC)c1 | 2.7
1.5 | CNC(=O)c1ccccc1Nc1ncnc(Nc2ccc(OC)cc2OC)n1 | 6.5
21.1 | COc1ccc(Nc2ncnc(Nc3ccccc3NC(C)=O)n2)c(OC)c1 | 11.2
– | CNC(=O)c1ccccc1Nc1ncnc(Nc2ccc(N3CCOCC3)cc2OC)n1 | 1.5
0.3 | CNC(=O)c1ccccc1Nc1ncnc(Nc2cc(CCC(N)=O)c(OC)c(OC)c2)n1 | 1.3
2.3 | CS(=O)(=O)Nc1ccccc1Nc1ncnc(Nc2ccc(CN)cc2)n1 | 3.9
0.16 | CNC(=O)c1ccccc1Nc1ncnc(Nc2ccc(CN)cc2)n1 | 2.1
0.44 | CCNC(=O)c1ccccc1Nc1ncnc(Nc2ccc(CN)cc2)n1 | 2.8
41.9 | COc1cc(Nc2nc(Cl)nc(Nc3ccccc3NS(C)(=O)=O)n2)cc(OC)c1OC | 9.5
5.1 | COc1cc(Nc2ncnc(Nc3ccccc3NS(C)(=O)=O)n2)cc(OC)c1OC | 6.1
65.9 | CNc1nc(Nc2cc(OC)c(OC)c(OC)c2)nc(Nc2ccccc2NS(C)(=O)=O)n1 | 34.2
57.8 | COc1cc(Nc2nc(Cl)nc(Nc3cccc(NS(C)(=O)=O)c3)n2)cc(OC)c1OC | 13.3
9.2 | COc1cc(Nc2ncnc(Nc3cccc(NS(C)(=O)=O)c3)n2)cc(OC)c1OC | 7.2
41.3 | CNc1nc(Nc2cccc(NS(C)(=O)=O)c2)nc(Nc2cc(OC)c(OC)c(OC)c2)n1 | 10
7.9 | COc1cc(Nc2nc(C)nc(Nc3ccccc3NS(C)(=O)=O)n2)cc(OC)c1OC | 8.5
50.8 | COc1cc(Nc2nc(C)nc(Nc3ccccc3NC(C)=O)n2)cc(OC)c1OC | 18.8
35.9 | COC(=O)Nc1ccccc1Nc1nc(C)nc(Nc2cc(OC)c(OC)c(OC)c2)n1 | 15.8
54.3 | COc1cc(Nc2nc(C)nc(Nc3ccccc3NC(=O)N(C)C)n2)cc(OC)c1OC | 27.3
126 | COc1cc(Nc2nc(Nc3ccccc3NC(C)=O)nc(C(F)(F)F)n2)cc(OC)c1OC | 33.3
0.4 | CNC(=O)c1ccccc1Nc1ncnc(Nc2cc(OC)c(OC)c(OC)c2)n1 | 2.5
– | CNC(=O)c1ccccc1Nc1nc(Nc2ccc(N3CCOCC3)cc2OC)ncc1Cl | 1
